Tests used:
Type in all cases: biochemical
JAK3 = JAK3 (Homo sapiens (Human), UniProt P52333); assay: IC50 against JAK3
TXK = TXK (Homo sapiens (Human), UniProt P42681); assay: IC50 against TXK; conditions: for TXK/ITK: ratio of TXK IC50 to ITK IC50
BTK = BTK (Homo sapiens (Human), UniProt Q06187); assay: IC50 against BTK
ITK = ITK (Homo sapiens (Human), UniProt Q08881); assay: IC50 against ITK
Sequence of ITK (Q08881 whole entry): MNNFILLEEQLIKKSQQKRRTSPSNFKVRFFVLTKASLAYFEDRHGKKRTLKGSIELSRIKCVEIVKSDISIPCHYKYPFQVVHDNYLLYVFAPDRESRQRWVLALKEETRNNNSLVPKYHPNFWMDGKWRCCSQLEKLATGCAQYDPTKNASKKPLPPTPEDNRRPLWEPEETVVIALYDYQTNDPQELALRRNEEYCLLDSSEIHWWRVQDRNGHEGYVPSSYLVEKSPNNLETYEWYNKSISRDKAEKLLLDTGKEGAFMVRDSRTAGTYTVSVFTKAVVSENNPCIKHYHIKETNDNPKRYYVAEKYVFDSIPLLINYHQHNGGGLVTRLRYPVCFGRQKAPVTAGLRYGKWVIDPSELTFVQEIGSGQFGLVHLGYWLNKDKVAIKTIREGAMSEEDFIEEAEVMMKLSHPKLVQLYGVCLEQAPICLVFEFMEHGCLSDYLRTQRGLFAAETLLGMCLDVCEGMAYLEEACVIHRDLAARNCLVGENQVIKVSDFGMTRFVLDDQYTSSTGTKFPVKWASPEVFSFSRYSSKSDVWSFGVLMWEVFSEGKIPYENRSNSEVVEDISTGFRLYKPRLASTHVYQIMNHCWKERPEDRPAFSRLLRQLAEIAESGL

Sequence of TXK (P42681 whole entry, species assumed): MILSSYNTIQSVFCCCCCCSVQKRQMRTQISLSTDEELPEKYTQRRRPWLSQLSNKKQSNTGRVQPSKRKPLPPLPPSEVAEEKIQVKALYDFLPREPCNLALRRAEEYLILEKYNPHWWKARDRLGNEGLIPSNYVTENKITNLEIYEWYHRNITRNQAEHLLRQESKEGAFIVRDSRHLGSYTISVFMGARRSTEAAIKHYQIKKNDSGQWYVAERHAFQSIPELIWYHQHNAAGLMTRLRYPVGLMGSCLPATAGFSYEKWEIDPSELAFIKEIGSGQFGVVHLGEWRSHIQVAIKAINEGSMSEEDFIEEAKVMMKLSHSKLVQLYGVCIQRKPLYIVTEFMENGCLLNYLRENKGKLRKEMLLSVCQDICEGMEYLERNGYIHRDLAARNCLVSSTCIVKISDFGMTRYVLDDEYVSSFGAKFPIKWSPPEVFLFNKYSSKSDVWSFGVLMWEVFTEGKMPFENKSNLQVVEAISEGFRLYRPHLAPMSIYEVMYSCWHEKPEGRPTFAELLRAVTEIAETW
Sequence of JAK3 (P52333 whole entry, species assumed): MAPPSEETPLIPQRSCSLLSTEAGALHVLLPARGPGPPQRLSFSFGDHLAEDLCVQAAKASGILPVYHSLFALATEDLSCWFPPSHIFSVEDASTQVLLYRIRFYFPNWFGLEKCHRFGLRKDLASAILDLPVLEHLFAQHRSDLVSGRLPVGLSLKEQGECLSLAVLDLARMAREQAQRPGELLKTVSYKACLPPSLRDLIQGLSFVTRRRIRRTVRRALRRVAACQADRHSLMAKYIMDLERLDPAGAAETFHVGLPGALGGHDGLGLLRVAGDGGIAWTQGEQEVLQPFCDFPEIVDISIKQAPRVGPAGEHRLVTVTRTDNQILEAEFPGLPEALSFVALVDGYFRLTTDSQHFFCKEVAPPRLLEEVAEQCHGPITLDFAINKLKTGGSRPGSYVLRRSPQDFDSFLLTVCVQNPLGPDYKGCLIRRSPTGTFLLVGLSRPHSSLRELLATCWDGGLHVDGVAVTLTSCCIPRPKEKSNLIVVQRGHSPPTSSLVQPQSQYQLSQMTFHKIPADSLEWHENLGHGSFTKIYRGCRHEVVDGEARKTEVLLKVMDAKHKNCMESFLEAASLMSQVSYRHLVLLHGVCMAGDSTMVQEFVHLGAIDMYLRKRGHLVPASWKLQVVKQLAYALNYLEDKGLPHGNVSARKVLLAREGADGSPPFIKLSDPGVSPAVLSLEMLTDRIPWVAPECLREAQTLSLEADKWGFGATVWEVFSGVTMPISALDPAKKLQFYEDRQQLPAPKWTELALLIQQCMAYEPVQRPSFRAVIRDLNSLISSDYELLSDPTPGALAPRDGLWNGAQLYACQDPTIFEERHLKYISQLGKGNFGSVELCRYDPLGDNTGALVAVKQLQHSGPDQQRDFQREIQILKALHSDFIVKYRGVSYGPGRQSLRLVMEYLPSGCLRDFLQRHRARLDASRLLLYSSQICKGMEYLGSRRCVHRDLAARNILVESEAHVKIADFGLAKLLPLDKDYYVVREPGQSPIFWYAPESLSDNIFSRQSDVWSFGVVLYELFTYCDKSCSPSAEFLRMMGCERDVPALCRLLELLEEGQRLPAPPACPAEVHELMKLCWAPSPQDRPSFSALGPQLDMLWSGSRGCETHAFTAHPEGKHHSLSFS
Sequence of BTK (Q06187 whole entry, species assumed): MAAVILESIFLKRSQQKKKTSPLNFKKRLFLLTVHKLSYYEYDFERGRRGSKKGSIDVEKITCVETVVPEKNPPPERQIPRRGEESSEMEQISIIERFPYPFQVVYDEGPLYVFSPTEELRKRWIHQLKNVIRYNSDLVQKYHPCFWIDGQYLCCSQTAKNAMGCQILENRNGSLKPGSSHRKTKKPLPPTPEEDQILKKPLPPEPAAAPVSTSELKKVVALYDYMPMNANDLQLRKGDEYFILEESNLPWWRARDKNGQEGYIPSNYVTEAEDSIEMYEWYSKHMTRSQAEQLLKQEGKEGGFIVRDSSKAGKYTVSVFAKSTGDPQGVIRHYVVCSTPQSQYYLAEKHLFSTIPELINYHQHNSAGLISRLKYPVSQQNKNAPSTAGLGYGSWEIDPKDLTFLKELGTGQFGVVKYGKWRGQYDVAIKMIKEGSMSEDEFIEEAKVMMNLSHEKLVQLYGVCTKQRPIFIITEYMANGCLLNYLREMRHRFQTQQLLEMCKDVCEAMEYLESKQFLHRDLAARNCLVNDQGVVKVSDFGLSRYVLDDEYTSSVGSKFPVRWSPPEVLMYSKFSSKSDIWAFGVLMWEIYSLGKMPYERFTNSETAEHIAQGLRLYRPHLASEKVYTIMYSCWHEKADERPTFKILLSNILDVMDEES

Compound	IC50 (JAK3) [nM]	IC50 (TXK) [nM]	TXK/ITK (TXK)	IC50 (BTK) [nM]	IC50 (ITK) [nM]
C=CC(=O)N1CCCN(C(=O)c2cc(Sc3cnc(NC(=O)C4CC4)s3)c(C)cc2F)C[C@H]1C [Compound 60]	≥ 10000	1000 to 10000	21.785	≥ 10000	10 to 100
C=CC(=O)N1CCCN(C(=O)c2cc(Sc3cnc(NC(=O)C4CC4)s3)c(F)cc2C)C[C@H]1C [Compound 83]	1000 to 10000	1000 to 10000	45.317	≥ 10000	10 to 100
C=C(CN(C)C)C(=O)N1CCCN(C(=O)c2cc(Sc3cnc(NC(=O)C4CC4)s3)c(C)cc2OC)C[C@H]1C [Compound 88]	≥ 10000	≥ 10000	30.436	≥ 10000	100 to 1000
C=CC(=O)N1CCCN(C(=O)c2cc(Sc3cnc(NC(=O)C4CC4)s3)c(C)cc2C(F)(F)F)C[C@H]1C [Compound 70]	≥ 10000	1000 to 10000	35.68	≥ 10000	10 to 100
C=CC(=O)N1CCCN(C(=O)c2cc(Cc3cnc(NC(=O)C4CC4)s3)c(C)cc2OC)C[C@H]1C [Compound 128]	≥ 10000	100 to 1000	12.8	100 to 1000	10 to 100
C=CC(=O)N1CCCN(C(=O)c2cc(Sc3cnc(NC(=O)C4CC4)s3)c(C)cc2Cl)C[C@H]1C [Compound 61]	1000 to 10000	100 to 1000	50.716	≥ 10000	10 to 100
C=CC(=O)N1CCN(C(=O)c2cc(Sc3cnc(NC(=O)c4cccc(CN(C)C)c4)s3)c(C)cc2C)CC1 [Compound 107]	100 to 1000	10 to 100	61.8	100 to 1000	< 10
C=CC(=O)N1C[C@H]2CN(C(=O)c3cc(Sc4cnc(NC(=O)C5CC5)s4)c(C)cc3OC)C[C@H]21 [Compound 52]	1000 to 10000	10 to 100	–	–	< 10
COc1cc(C)c(Sc2cnc(NC(=O)C3CC3)s2)cc1C(=O)N1CCN(C(=O)/C=C/CN(C)C)CC1 [Compound 3]	≥ 10000	100 to 1000	5.162	1000 to 10000	10 to 100
C=CC(=O)N1CCN(C(=O)c2cc(Sc3cnc(NC(=O)C4CC4)s3)c(C)cc2C)C[C@H]1C [Compound 75]	100 to 1000	10 to 100	–	–	< 10

Next, values leading:

IC50 (JAK3) [nM]	IC50 (TXK) [nM]	TXK/ITK (TXK)	IC50 (BTK) [nM]	IC50 (ITK) [nM]	Compound
1000 to 10000	100 to 1000	166.05	1000 to 10000	< 10	C=CC(=O)N1CCCN(C(=O)c2cc(Sc3cnc(NC(=O)C4CC4)s3)c(C)cc2C)C[C@H]1C [Compound 59]
100 to 1000	< 10	1.9721	10 to 100	< 10	C=CC(=O)N1CCN(C(=O)c2cc(Sc3cnc(NC(C)=O)s3)c(C)cc2OC)C(C)(C)C1 [Compound 5]
100 to 1000	100 to 1000	70.047	100 to 1000	< 10	C=CC(=O)N1CCN(C(=O)c2cc(Sc3cnc(NC(=O)c4cccc(CN(C)C)c4)s3)c(C)cc2OC)CC(F)C1 (centres unmarked) [Compound 66]
≥ 10000	≥ 10000	519.55	1000 to 10000	10 to 100	C=CC(=O)N1CCCN(C(=O)c2cc(Sc3cnc(NC(=O)c4cccc(CN(C)C)c4)s3)c(C)cc2OC)C[C@H]1C [Compound 48]
≥ 10000	100 to 1000	171.45	10 to 100	< 10	C=CC(=O)N1CCCN(C(=O)c2cc(Sc3cnc(NC(=O)c4ccsc4)s3)c(C)cc2OC)C[C@H]1C(C)C [Compound 149, (R)-N-(5-((5-(4-acryloyl-3-isopropyl-1,4-diazepane-l-carbonyl)-4-methoxy-2-methylphenyl)thio)thiazol-2-yl)thiophene-3-carboxamide]
1000 to 10000	100 to 1000	–	1000 to 10000	–	C=CC(=O)N1CCCN(C(=O)c2cc(Sc3cnc(NC(=O)C4CC4)s3)c(C)cc2OC)C[C@@H]1C [Compound 71]

Reference: patent US11008314B2, “Compounds and methods for modulating interleukin-2-inducible t-cell kinase” (CORVUS PHARMACEUTICALS, INC., priority 2016, dated 2021)
